From patent US4085224A, “Method of increasing feed utilization” (Eli Lilly and Company, priority 1976, dated 1978)

Test system: Eimeria tenella
Assay: anticoccidial activity in chicks (Table VIII)
Assay type: in vivo
Conditions: for Percent Weight Gain: normal controls 100
[1] = first group, 0.01 percent in feed
[2] = first group, 0.02 percent in feed
[3] = first group, 0.04 percent in feed
[4] = second group, 0.0025 percent in feed
[5] = second group, 0.005 percent in feed
[6] = second group, 0.01 percent in feed
[7] = second group, 0.02 percent in feed

CCC(C(=O)O)C1OC(C(C)C(O)C(C)C(=O)C(CC)C2OC3(C=CC(O)C4(CCC(C)(C5CCC(O)(CC)C(C)O5)O4)O3)C(C)CC2C)C(C)CC1C (stereo not shown) [A-28086 factor A]
Percent Reduction in Lesion Score [1]: 95% | Percent Mortality (first group, 0.01 percent in feed, 10 chickens): 0% | Average Lesion Score (first group, 0.01 percent in feed, infected controls 3.65): 0.2 | Percent Weight Gain [1]: 94% | Percent Reduction in Lesion Score [2]: 95% | Percent Mortality (first group, 0.02 percent in feed, 10 chickens): 0% | Average Lesion Score (first group, 0.02 percent in feed, infected controls 3.65): 0.2 | Percent Weight Gain [2]: 82% | Percent Reduction in Lesion Score [3]: 100% | Percent Mortality (first group, 0.04 percent in feed, 10 chickens): 0% | Average Lesion Score (first group, 0.04 percent in feed, infected controls 3.65): 0 | Percent Weight Gain [3]: 50% | Percent Reduction in Lesion Score [4]: 0% | Percent Mortality (second group, 0.0025 percent in feed, 20 chickens): 10% | Average Lesion Score (second group, 0.0025 percent in feed, infected controls 3.85): 3.85 | Percent Weight Gain [4]: 87% | Percent Reduction in Lesion Score [5]: 27% | Percent Mortality (second group, 0.005 percent in feed, 20 chickens): 0% | Average Lesion Score (second group, 0.005 percent in feed, infected controls 3.85): 2.8 | Percent Weight Gain [5]: 91% | Percent Reduction in Lesion Score [6]: 100% | Percent Mortality (second group, 0.01 percent in feed, 20 chickens): 0% | Average Lesion Score (second group, 0.01 percent in feed, infected controls 3.85): 0 | Percent Weight Gain [6]: 96% | Percent Reduction in Lesion Score [7]: 100% | Percent Mortality (second group, 0.02 percent in feed, 20 chickens): 0% | Average Lesion Score (second group, 0.02 percent in feed, infected controls 3.85): 0 | Percent Weight Gain [7]: 84%
